The nature of data set [1]: physchem.
Data set [2] in a line: n-octanol/water logD by prior art shake-flask method.
A short description of data set [3]: physchem. This is another data set of the same source.
The conditions of data set [4]: cited from earlier work; for LogD value from literature: n-octanol/water; for logD, Literature Value: pH = 7.4, AstraZeneca in-house data.
Data set [5] in a line: n-octanol/water logD with stock solution of n-octanol-charged nanoparticles (SC-CO2 delivery, example 10). Particulars: pH 7.4.
Procedure: 30 μL n-octanol was then added into the holder 6 by the use of a micro-pipettor. The autoclave vessel and the sample holder (30 ml in total volume) were charged and flushed with CO2 by opening and closing the valves between the two compartments and external outlets for a few times before the vessels were brought up to the desired pressure (150 bar). The temperature of the autoclave and sample holder was maintained at 40° C., to allow the dispersion of the small quantity of n-octanol into the porous particles. After 2 hours, the high pressure of the system was released to atmosphere very slowly.
An appropriate amount of n-octanol was added to provide a thin n-octanol layer covering the water phase (density of n-octanol is lower than water). The funnel was shaken for 5 to 10 minutes to allow mixing of the n-octanol with water. The funnel was then covered by aluminium foil to protect the solvent mixture from light degradation and evaporation. The funnel was placed in an upright position for 3 days to allow separation of the two phases. The n-octanol phase saturated with water was then collected.
The particles containing nanocomposite were dispersed into 5 mL of this saturated buffer solution to obtain a homogeneous stock-solution with a concentration of 0.0038 mL n-octanol per mL of solution. Partition coefficient measurements were carried out as described below, using such a stock solution prepared in the same way.
After shaking the mixed system for half an hour, the magnetic nanocomposites were precipitated in a few minutes by an external magnet placed near the bottom of the reactor-tube. UV-visible spectrophotometry was used to determine the absorption of analyte at the aqueous phase both before and after partitioning.
For the partition coefficient determination, stock solutions were prepared with a suitable n-octanol/nanoparticle ratio. […]
UV-visible spectrometry was used to quantitatively determine the drug concentration in aqueous phase before and after partitioning. […]
Where [6] appears, read: n-octanol/water, pH 7.4, LogD value measured (Prior art method) (pH = 7.4), single measurements, water:n-octanol 100:1.
The mark [7] stands for this setting: n-octanol/water, pH 7.4, Mean logD value measured (Prior art method) (ph = 7.4), mean of five, water:n-octanol 100:1.
Where [8] appears, read: pH 7.4, LogD value measured by present invention (pH = 7.4), single measurements, water:n-octanol 100:1.
[9] abbreviates: pH 7.4, Mean logD value measured by present invention (pH = 7.4), mean of five, water:n-octanol 100:1.
The mark [10] stands for this setting: single measurements, water:n-octanol 100:1.
The mark [11] stands for this setting: pH 7.4, logD, Magnetic nano-composite method, water/n-octanol 100, average of at least five, confidence level 95%.
The mark [12] stands for this setting: pH 7.4, LogD value measured (Prior art method) (pH = 7.4), single measurements, water:n-octanol 100:1.
Setting [13] is: pH 7.4, Mean logD value measured (Prior art method) (ph = 7.4), mean of five, water:n-octanol 100:1.
Setting [14] is: n-octanol/water, pH 7.4, logD, Shake-Flask Method, water/n-octanol 100, average of at least five, confidence level 95%.

Molecules are shown by their SMILES. Several values for one entry are separate records, joined by “and”; a condition that tells them apart may be missing. Equal values may be shown once. Read-outs that look alike come from different tables or passages of the source.

Consider seven molecules from patent US20070042507A1, “Composite nanoparticles” (priority 2003, published 2007).

With `COc1ccc([N+](=O)[O-])cc1` [4-Nitroanisole], the logD in the data set “physchem [1]” (pH 7.4, LogD value measured by present invention (pH = 7.4)) is 2.01; in “physchem [1]” (pH 7.4, logD, Magnetic nano-composite method) it was 2.013 ± 0.012; in data set [2] (setting [6]), 2.01; in data set [2] (setting [7]) it was 2.01 ± 0.0077; in the data set “physchem [3]” (pH 7.4, LogD value measured (Prior art method) (pH = 7.4)) it was 2.02; in the data set “physchem [3]” (pH 7.4, logD, Shake-Flask Method), 2.01 ± 0.008. The logD under setting [8] was determined as 2.01 and the logD under setting [9] worked out at 2.013 ± 0.012. Also, the “LogD value measured by present invention (pH = 7.4)” value (single measurements, water:n-octanol 100:1, listed as 4-Nitroansiole) is 2.023 and 2.002.
Turning to `O=[N+]([O-])c1ccc(CO)cc1` [4-Nitrobenzyl alcohol], the “LogD value from literature” value in data set [4] is reported as 1.260. Also, the “logD, Literature Value” in data set [4] was 1.260. The same molecule showed a pH-dependent lipophilicity (logD) in data set [2] (setting [6]) of 1.25, a log distribution coefficient (logD) under setting [8] of 1.27, a logD under setting [9] of 1.27 ± 0.0381 and a logD under setting [11] of 1.27 ± 0.038. Further, the “LogD value measured (Prior art method) (pH = 7.4)” value in data set [2] (setting [10]) is 1.264 and 1.244 and 1.256.
Take `O=[N+]([O-])c1ccc(O)cc1` [4-Nitrophenol]: the “LogD value from literature” value in data set [4] is recorded as 1.480. Besides, the “logD, Literature Value” in data set [4] is on record as 1.480. This molecule also registered a logD in data set [5] of 1.45 ± 0.026; a logD in data set [2] (setting [12]) of 1.77; a logD in data set [2] (setting [13]) of 1.78 ± 0.019; a logD in data set [2] (pH 7.4, logD, Shake-Flask Method, water/n-octanol 100, average of at least five, confidence level 95%) of 1.486 ± 0.009; a logD under setting [8] of 1.81; a logD under setting [9] of 1.807 ± 0.0052. For the same molecule, under setting [11], the log distribution coefficient (logD) is 1.49 ± 0.021. For the same molecule, the “LogD value measured (Prior art method) (pH = 7.4)” value in data set [2] (setting [10]) is 1.779 and 1.811 and 1.780.
`Nc1ccccc1` [Aniline]: the “LogD value from literature” value in data set [4] was 0.900. Also, the logD in data set [2] (setting [12]) turned out to be 0.936, the logD in data set [2] (setting [13]) was 0.934 ± 0.0094, the logD under setting [8] came out at 0.963 and the logD under setting [9] is 0.973 ± 0.0303. The “LogD value measured (Prior art method) (pH = 7.4)” value in data set [2] (setting [10]) was 0.945 and 0.929 and 0.926 and 0.932. In addition, the “LogD value measured by present invention (pH = 7.4)” value under setting [10] was 0.990 and 0.935 and 0.989.
Under setting [8], `NC(=O)c1ccccc1` [Benzamide] returned a logD of 0.0639.
Take `CN(C)CCCN1c2ccccc2Sc2ccc(Cl)cc21` [Chlorpromazine]: in data set [4], the “LogD value from literature” value is recorded as 3.200. For the same molecule, in data set [4], the “logD, Literature Value” was 3.200. The pH-dependent lipophilicity (logD) in data set [5] amounted to 3.17 ± 0.448; the logD in data set [2] (setting [6]) amounted to 3.08; the log distribution coefficient (logD) in data set [2] (setting [7]) was 3.076 ± 0.0047; the logD in data set [2] (setting [14]) came out at 3.076 ± 0.005; the logD under setting [8] is 3.14; the logD under setting [9] was found to be 3.164 ± 0.0111. Also, the pH-dependent lipophilicity (logD) under setting [11] stood at 3.164 ± 0.011. Further, the “LogD value measured (Prior art method) (pH = 7.4)” value in data set [2] (setting [10]) was 3.074 and 3.083. Besides, the “LogD value measured by present invention (pH = 7.4)” value under setting [10] was 3.179 and 3.186 and 3.124.
For the molecule `c1ccc2ncccc2c1` [Quinoline], the “LogD value from literature” value in data set [4] was 2.020. Further, the “logD, Literature Value” in data set [4] was 2.020. The molecule further came in with a log distribution coefficient (logD) in data set [5] of 2.08 ± 0.073; a logD in data set [2] (setting [6]) of 2.12; a logD in data set [2] (setting [7]) of 2.116 ± 0.0039; a logD in data set [2] (setting [14]) of 2.116 ± 0.004; a logD under setting [8] of 2.19; a logD under setting [9] of 2.186 ± 0.0044. The logD under setting [11] came out at 2.186 ± 0.004. Besides, in data set [2] (setting [10]), the “LogD value measured (Prior art method) (pH = 7.4)” value was 2.115 and 2.113 and 2.121 and 2.114.

Usually logD stands for the decadic logarithm of the distribution of all forms, ionised or not, between an organic phase and buffer at a given pH. A lower logD goes with a more hydrophilic compound.
